Reference: BindingDB's records for doi:10.1021/jm970166j (Roche Bioscience, 1997)

How the values were obtained:
[1] = target: T1, 5-hydroxytryptamine receptor 1A (Mus musculus, UniProt Q64264); assay: The compound's binding affinity against 5-hydroxytryptamine 1A receptor
T1 sequence (Q64264 whole entry): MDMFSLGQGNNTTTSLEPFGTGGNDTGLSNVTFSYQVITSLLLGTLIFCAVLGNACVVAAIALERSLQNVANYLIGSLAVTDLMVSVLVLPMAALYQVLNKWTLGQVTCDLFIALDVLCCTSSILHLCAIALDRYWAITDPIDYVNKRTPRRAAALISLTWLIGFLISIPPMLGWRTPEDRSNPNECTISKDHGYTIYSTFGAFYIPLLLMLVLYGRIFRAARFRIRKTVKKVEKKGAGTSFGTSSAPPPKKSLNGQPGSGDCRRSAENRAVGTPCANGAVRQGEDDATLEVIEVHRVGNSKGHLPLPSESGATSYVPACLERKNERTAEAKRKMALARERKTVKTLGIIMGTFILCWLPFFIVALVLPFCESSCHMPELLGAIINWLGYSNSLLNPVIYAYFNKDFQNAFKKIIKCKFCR

D(2) dopamine receptor = D(2) dopamine receptor (Homo sapiens, UniProt P14416); assay: The compound's binding affinity against Dopamine receptor D2
Sequence of D(2) dopamine receptor (P14416 whole entry): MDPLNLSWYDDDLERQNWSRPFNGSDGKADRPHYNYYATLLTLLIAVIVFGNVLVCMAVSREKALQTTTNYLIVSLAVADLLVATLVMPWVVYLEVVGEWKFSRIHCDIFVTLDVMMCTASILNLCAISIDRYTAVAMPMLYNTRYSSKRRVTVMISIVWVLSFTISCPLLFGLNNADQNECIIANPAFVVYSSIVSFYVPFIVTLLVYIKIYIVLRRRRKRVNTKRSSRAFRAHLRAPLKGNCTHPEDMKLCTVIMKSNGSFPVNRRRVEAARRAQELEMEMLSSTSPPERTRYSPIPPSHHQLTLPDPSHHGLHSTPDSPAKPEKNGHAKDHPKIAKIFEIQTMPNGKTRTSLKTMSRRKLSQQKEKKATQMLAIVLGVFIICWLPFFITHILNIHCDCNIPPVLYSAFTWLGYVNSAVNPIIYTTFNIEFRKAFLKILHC

[2] = target: T2, Alpha-2B adrenergic receptor (Rattus norvegicus, UniProt P19328); assay: The compound's binding affinity against Alpha-2B adrenergic receptor from rat kidney homogenate in the presence of phentolamine
T2 sequence (P19328 whole entry): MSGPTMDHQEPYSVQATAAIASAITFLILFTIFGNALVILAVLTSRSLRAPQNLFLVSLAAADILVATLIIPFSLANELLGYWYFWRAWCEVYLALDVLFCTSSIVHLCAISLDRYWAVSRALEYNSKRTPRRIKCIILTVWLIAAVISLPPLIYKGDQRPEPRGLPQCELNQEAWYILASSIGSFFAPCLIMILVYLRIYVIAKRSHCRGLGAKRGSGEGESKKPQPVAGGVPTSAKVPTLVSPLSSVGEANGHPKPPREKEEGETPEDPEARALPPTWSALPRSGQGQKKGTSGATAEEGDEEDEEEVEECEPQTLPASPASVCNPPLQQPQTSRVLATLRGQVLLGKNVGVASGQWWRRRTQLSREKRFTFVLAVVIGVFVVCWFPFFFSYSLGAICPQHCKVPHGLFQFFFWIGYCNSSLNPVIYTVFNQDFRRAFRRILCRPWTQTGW

| Structure (SMILES) | pKi [1] | pKi (D(2) dopamine receptor) | pKi [2] |
| --- | --- | --- | --- |
| COc1cc(F)ccc1N1CCN(CCCNc2c(C(=O)N(C)C)cnc3c2c(C)nn3C)CC1 | 6.5 | 6.4 |  |
| Cc1nn(C)c2ncc(C(=O)N(C)C)c(NCCCN3CCN(c4ccccc4OCC(F)(F)F)CC3)c12 | 7.5 | 8.1 | 8.6 |
| COc1ccccc1N1CCN(CCCNc2ncccc2C(=O)N(C)C)CC1 | 7.6 | 7.4 |  |
| COc1cc(F)ccc1N1CCN(CCCNc2ncccc2C(=O)N(C)C)CC1 | 6.7 | 6.7 | 6.5 |
